From patent US4528027A, “Acylthio-substituted triazines” (Shell Oil Company, priority 1984, dated 1985)

test: Approximate solubility in xylene at room temperature; format: physicochemical; conditions: not given

| Approximate Solubility at Room Temperature, Grams of Compound per 100 Grams of Xylene | SMILES |
| --- | --- |
| 26 Grams of Compound per 100 Gram | CCN(SC(=O)OC)c1nc(Cl)nc(NC(C)(C)C#N)n1 [Compound 1, 2-chloro-4-(1-cyano-1-methylethylamino)-6-(N-ethyl-N-((methoxycarbonyl)thio))-1,3,5-triazine] |
| > 150 Grams of Compound per 100 Gram | CCN(SC(=O)OC)c1nc(NC(C)C)nc(SC)n1 [Compound 15, 2-(methylthio)-4-(1-methylethylamino)-6-(N-ethyl-N-((methoxycarbonyl)thio))-1,3,5-triazine] |
| > 150 Grams of Compound per 100 Gram | CCN(SC(=O)OC)c1nc(NC(C)C)nc(OC)n1 [Compound 14, 2-methoxy-4-(1-methylethylamino)-6-(N-ethyl-N-((methoxycarbonyl)thio))-1,3,5-triazine] |
| > 150 Grams of Compound per 100 Gram | CCN(SC(=O)OC)c1nc(Cl)nc(NC(C)C)n1 [Compound 5] |

same assay, conditions: xylene, room temperature

| SMILES | Approximate Solubility at Room Temperature, Grams of Compound per 100 Grams of Xylene |
| --- | --- |
| CCNc1nc(Cl)nc(NC(C)(C)C#N)n1 [Compound 1B, 2-chloro-4-(1-cyano-1-methylethylamino)-6-ethylamino-1,3,5-triazine, reference compound] | 0.3 Grams of Compound per 100 Gram |
| CCNc1nc(NC(C)C)nc(OC)n1 [Compound 14A, 2-methoxy-4-(1-methylethylamino)-6-ethylamino-1,3,5-triazine, reference compound] | 25 Grams of Compound per 100 Gram |
